{"source": "patent US6664235B1", "about": "“Medicaments comprising sialic acid derivatives as active ingredients” (priority 1999, dated 2003)", "key": {"[1]": {"experiment": "Test of resistance to acid hydrolysis (1H NMR)", "details": "for half-life: 1.0 N D2SO4/D2O, pH 1.37"}, "[2]": {"system": "influenza virus A/Aichi/2/68 (H3N2)", "type": "binding"}, "[3]": {"system": "influenza virus A/PR/8/34 (H1N1) hemagglutinin", "experiment": "Hemagglutination inhibitory assay with human erythrocytes", "type": "cell-based", "details": "lowest concentration that completely inhibited agglutination; viruses 2^4 HA units, 4° C., 1 hour"}, "[4]": {"biological_target": "Clostridium perfringens sialidase (Clostridium perfringens, UniProt A0A0H2YQR1)", "sequence (A0A0H2YQR1 42-694 limits assumed)": "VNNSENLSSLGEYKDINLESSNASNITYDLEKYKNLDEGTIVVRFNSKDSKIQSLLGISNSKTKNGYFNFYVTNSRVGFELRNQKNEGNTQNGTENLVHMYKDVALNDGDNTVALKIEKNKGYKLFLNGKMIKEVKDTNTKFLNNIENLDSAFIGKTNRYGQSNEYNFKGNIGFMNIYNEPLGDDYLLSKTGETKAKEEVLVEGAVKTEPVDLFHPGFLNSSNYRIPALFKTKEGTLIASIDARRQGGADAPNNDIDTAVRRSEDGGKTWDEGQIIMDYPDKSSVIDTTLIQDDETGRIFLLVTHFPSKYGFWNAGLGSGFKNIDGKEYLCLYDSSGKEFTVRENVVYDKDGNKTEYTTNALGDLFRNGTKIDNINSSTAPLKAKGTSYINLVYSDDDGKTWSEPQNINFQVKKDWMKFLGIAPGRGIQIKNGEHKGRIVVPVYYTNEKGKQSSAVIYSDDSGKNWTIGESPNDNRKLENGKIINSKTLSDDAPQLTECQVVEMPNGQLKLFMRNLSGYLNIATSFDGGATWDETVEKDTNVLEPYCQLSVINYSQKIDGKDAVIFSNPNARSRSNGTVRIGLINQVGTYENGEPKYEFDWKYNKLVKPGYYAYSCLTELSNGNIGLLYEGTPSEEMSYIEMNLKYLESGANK", "type": "biochemical"}, "[5]": {"system": "sialidase of influenza virus A/Singapore/1/57 (H2N2)", "type": "biochemical, human isolate", "details": "read-out: Inhibitory activity (IC50, μM) 4-MU-Neu5Ac as substrate"}, "[6]": {"system": "sialidase of influenza virus A/Aichi/2/68 (H3N2)", "type": "biochemical, human isolate"}, "[7]": {"system": "sialidase of influenza virus A/duck/36/4/76 (H1N1)", "type": "biochemical, avian isolate", "details": "read-out: Inhibitory activity (IC50, μM) 4-MU-Neu5Ac as substrate"}, "[8]": {"system": "sialidase of influenza virus A/duck/849/3/80 (H4N1)", "type": "biochemical, avian isolate"}, "[9]": {"system": "sialidase of influenza virus A/duck/13/2/76 (H6N1)", "type": "biochemical, avian isolate"}, "[10]": {"system": "sialidase of influenza virus A/duck/33/3/76 (H10N1)", "type": "biochemical, avian isolate"}, "[11]": {"system": "sialidase of influenza virus A/duck/273/8/78 (H2N2)", "type": "biochemical, avian isolate"}, "[12]": {"system": "sialidase of influenza virus A/duck/24/5/76 (H3N2)", "type": "biochemical, avian isolate"}, "[13]": {"system": "sialidase of influenza virus A/duck/47/5/76 (H7N2)", "type": "biochemical, avian isolate"}, "[14]": {"system": "sialidase of influenza virus A/duck/86/1/76 (H9N2)", "type": "biochemical, avian isolate"}, "[15]": {"system": "sialidase of influenza virus A/duck/44/3/76 (H11N3)", "type": "biochemical, avian isolate"}, "[16]": {"system": "sialidase of influenza virus A/duck/862/5/80 (H12N5)", "type": "biochemical, avian isolate"}, "[17]": {"system": "sialidase of influenza virus A/swine/Hokkaido/2/81 (H1N1)", "type": "biochemical, swine isolate", "details": "read-out: Inhibitory activity (IC50, μM) Neu5Ac-DSPE as substrate"}, "[18]": {"system": "sialidase of influenza virus A/swine/Italy/309/83 (H3N2)", "type": "biochemical, swine isolate"}, "[19]": {"system": "influenza virus A/Aichi/2/68 (H3N2) strain", "experiment": "Inhibition of infection of influenza virus to MDCK cells (LDH release, cytopathic effect)", "type": "cell-based", "details": "LDH released from infected cells"}, "[20]": {"system": "influenza virus A/Aichi/2/68 (H3N2) strain", "type": "cell-based", "details": "read-out: IC50, early stage of infection"}, "[21]": {"system": "influenza virus A/Aichi/2/68 (H3N2) strain", "type": "cell-based", "details": "read-out: IC50 of prevention of cytopathic effects, late stage"}, "[22]": {"biological_target": "sialidase of influenza virus A/PR/8/34 (H1N1) (Influenza A virus, UniProt P03468)", "sequence (P03468 whole entry)": "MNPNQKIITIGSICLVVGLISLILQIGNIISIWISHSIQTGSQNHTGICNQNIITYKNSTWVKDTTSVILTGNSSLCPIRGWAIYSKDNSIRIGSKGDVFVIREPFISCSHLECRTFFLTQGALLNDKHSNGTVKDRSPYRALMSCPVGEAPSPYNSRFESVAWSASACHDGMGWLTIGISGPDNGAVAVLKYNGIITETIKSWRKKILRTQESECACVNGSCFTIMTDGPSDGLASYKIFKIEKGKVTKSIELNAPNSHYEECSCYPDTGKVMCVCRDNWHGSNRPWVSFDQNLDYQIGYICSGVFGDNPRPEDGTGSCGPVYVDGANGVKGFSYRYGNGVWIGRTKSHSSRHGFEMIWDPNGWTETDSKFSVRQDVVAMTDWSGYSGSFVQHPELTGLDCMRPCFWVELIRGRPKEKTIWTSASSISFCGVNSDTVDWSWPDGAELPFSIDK"}, "[23]": {"details": "read-out: Inhibitory activity (IC50, μM) 4-MU-Neu5Ac as substrate"}, "[24]": {"details": "read-out: Inhibitory activity (IC50, μM) Neu5Ac-DSPE as substrate"}}, "note": "pIC50: −log10 of the molar value. Like-named read-outs stand apart in the source and are kept apart here."}
{"smiles": "CC(=O)NC1C(O)C(F)C(Oc2ccc([N+](=O)[O-])cc2)(C(=O)O)OC1C(O)C(O)CO", "note": "(centres unmarked) [Compound 5]", "values": [{"measurement": "half-life", "setting": "[1]", "result": 48, "unit": "h"}]}
{"smiles": "CCCCCCCCCCCCCCCCCC(=O)CC(COC(=O)CCCCCCCCCCCCCCCCC)COP(=O)(O)OCCNCCOC1(C(=O)O)CC(O)C(NC(C)=O)C(C(O)C(O)CO)O1", "note": "(centres unmarked) [Compound 6]", "values": [{"measurement": "Binding assay (%) H3N2", "setting": "[2]", "result": 25, "unit": "%"}, {"measurement": "HAI (M) H1N1", "setting": "[3]", "result": 0.001, "unit": "M"}]}
{"smiles": "CCCCCCCCCCCCCCCCCC(=O)CC(COC(=O)CCCCCCCCCCCCCCCCC)COP(=O)(O)OCCNCCOC1(C(=O)O)OC(C(O)C(O)CO)C(NC(C)=O)C(O)C1O", "note": "(centres unmarked) [Compound 8]", "values": [{"measurement": "HAI (M) H1N1", "setting": "[3]", "result": ">0.001", "unit": "M"}]}
{"smiles": "CCCCCCCCCCCCCCCCCC(=O)CC(COC(=O)CCCCCCCCCCCCCCCCC)COP(=O)(O)OCCNCCOC1(C(=O)O)OC(C(O)C(O)CO)C(NC(C)=O)C(O)C1O", "note": "(centres unmarked) [Compound 7]", "values": [{"measurement": "affinity to H3 type virus HA relative to Compound 6", "setting": "[2]", "result": 144, "unit": "%"}, {"measurement": "HAI (M) H1N1", "setting": "[3]", "result": 0.001, "unit": "M"}]}
{"smiles": "CC(=O)NC1C(O)C(O)C(Oc2ccc([N+](=O)[O-])cc2)(C(=O)O)OC1C(O)C(O)CO", "note": "(centres unmarked) [Compound 3]", "values": [{"measurement": "Ki (M) NA (C. perfringens)", "setting": "[4]", "result": "Very weak"}, {"measurement": "half-life", "setting": "[1]", "result": 23, "unit": "h"}]}
{"smiles": "CC(=O)NC1C(O)CC(Oc2ccc([N+](=O)[O-])cc2)(C(=O)O)OC1C(O)C(O)CO", "note": "(centres unmarked) [Compound 2]", "values": [{"measurement": "Hydrolysis T½ (hour) 1N sulfuric acid 50° C.", "setting": "[1]; 1N sulfuric acid, 50° C.", "result": 0.15, "unit": "h"}]}
{"smiles": "CCCCCCCCCCCCCCCCCC(=O)CC(COC(=O)CCCCCCCCCCCCCCCCC)COP(=O)(O)OCCNCCOC1(C(=O)O)OC(C(O)C(O)CO)C(NC(C)=O)C(O)C1F", "note": "(centres unmarked) [Compound 9]", "values": [{"measurement": "IC50", "setting": "[5]", "result": 15.6, "unit": "µM"}, {"measurement": "virus sialidase activity inhibition", "setting": "[6]", "result": "completely inhibited"}, {"measurement": "IC50", "setting": "[6]; [23]", "result": 31.3, "unit": "µM"}, {"measurement": "IC50", "setting": "[6]; [24]", "result": 31.3, "unit": "µM"}, {"measurement": "IC50", "setting": "[7]", "result": 125, "unit": "µM"}, {"measurement": "IC50", "setting": "[8]; [23]", "result": 125, "unit": "µM"}, {"measurement": "IC50", "setting": "[8]; [24]", "result": 125, "unit": "µM"}, {"measurement": "IC50", "setting": "[9]; [23]", "result": 150, "unit": "µM"}, {"measurement": "IC50", "setting": "[9]; [24]", "result": 180, "unit": "µM"}, {"measurement": "IC50", "setting": "[10]; [23]", "result": 500, "unit": "µM"}, {"measurement": "IC50", "setting": "[10]; [24]", "result": 250, "unit": "µM"}, {"measurement": "IC50", "setting": "[11]; [23]", "result": 150, "unit": "µM"}, {"measurement": "IC50", "setting": "[11]; [24]", "result": 125, "unit": "µM"}, {"measurement": "IC50", "setting": "[12]; [23]", "result": 180, "unit": "µM"}, {"measurement": "IC50", "setting": "[12]; [24]", "result": 100, "unit": "µM"}, {"measurement": "IC50", "setting": "[13]; [23]", "result": 200, "unit": "µM"}, {"measurement": "IC50", "setting": "[13]; [24]", "result": 150, "unit": "µM"}, {"measurement": "IC50", "setting": "[14]; [23]", "result": 180, "unit": "µM"}, {"measurement": "IC50", "setting": "[14]; [24]", "result": 125, "unit": "µM"}, {"measurement": "IC50", "setting": "[15]; [23]", "result": 250, "unit": "µM"}, {"measurement": "IC50", "setting": "[15]; [24]", "result": 75, "unit": "µM"}, {"measurement": "IC50", "setting": "[16]; [23]", "result": 125, "unit": "µM"}, {"measurement": "IC50", "setting": "[16]; [24]", "result": 100, "unit": "µM"}, {"measurement": "IC50", "setting": "[17]", "result": 125, "unit": "µM"}, {"measurement": "IC50", "setting": "[18]; [23]", "result": 125, "unit": "µM"}, {"measurement": "IC50", "setting": "[18]; [24]", "result": 150, "unit": "µM"}, {"measurement": "HAI (M) H1N1", "setting": "[3]", "result": 0.001, "unit": "M"}, {"measurement": "pIC50", "setting": "[19]", "result": 5.25}, {"measurement": "pIC50", "setting": "[20]", "result": 4.85}, {"measurement": "pIC50", "setting": "[21]", "result": "~4.40"}, {"measurement": "virus sialidase activity inhibition", "setting": "[22]", "result": "completely inhibited"}, {"measurement": "IC50", "setting": "[22]; [24]", "result": 31.3, "unit": "µM"}]}
